Assay: xn = mol fraction of the nth substance listed
Conditions: Gas, Vibrating tube method

CCCCCCCCCCCCCCCC(=O)O [hexadecanoic acid] + O=C=O
Conditions | mass density [kg/m3]
313 K, 12110 kPa, x1 = 0.0003534 | 724.5
313 K, 12150 kPa, x1 = 0.0003534 | 725.8
313 K, 12360 kPa, x1 = 0.0003534 | 731.2
313 K, 12530 kPa, x1 = 0.0003534 | 735.3
313 K, 12770 kPa, x1 = 0.0003534 | 741
313 K, 12930 kPa, x1 = 0.0003534 | 744.7
313 K, 13150 kPa, x1 = 0.0003534 | 749.3
313 K, 13330 kPa, x1 = 0.0003534 | 753
313 K, 13680 kPa, x1 = 0.0003534 | 759.8
313 K, 13940 kPa, x1 = 0.0003534 | 764.4
313 K, 14120 kPa, x1 = 0.0003534 | 767.7
313 K, 14410 kPa, x1 = 0.0003534 | 772.7
313 K, 14570 kPa, x1 = 0.0004968 | 774.5
313 K, 14650 kPa, x1 = 0.0003534 | 776.6
313 K, 14940 kPa, x1 = 0.0005357 | 780.5
313 K, 14960 kPa, x1 = 0.0004968 | 780.9
313 K, 15030 kPa, x1 = 0.0003534 | 782.7
313 K, 15570 kPa, x1 = 0.0003534 | 790.5
313 K, 15970 kPa, x1 = 0.0004968 | 795.6
313 K, 16020 kPa, x1 = 0.0005357 | 795.7
313 K, 16050 kPa, x1 = 0.0003534 | 797
313 K, 16230 kPa, x1 = 0.0005357 | 798.5
313 K, 16430 kPa, x1 = 0.0005357 | 801.3
313 K, 16610 kPa, x1 = 0.0005357 | 803.4
313 K, 16820 kPa, x1 = 0.0005357 | 806
313 K, 17030 kPa, x1 = 0.0005357 | 808.5
313 K, 17040 kPa, x1 = 0.0003534 | 810.1
313 K, 17070 kPa, x1 = 0.0006302 | 809.1
313 K, 17120 kPa, x1 = 0.0004968 | 810
313 K, 17500 kPa, x1 = 0.0006302 | 814.3
313 K, 17610 kPa, x1 = 0.0006348 | 816.9
313 K, 17620 kPa, x1 = 0.0004968 | 815.9
313 K, 17810 kPa, x1 = 0.0006348 | 819
313 K, 17970 kPa, x1 = 0.0006302 | 819.5
313 K, 18010 kPa, x1 = 0.0006348 | 821
313 K, 18030 kPa, x1 = 0.0003534 | 821.3
313 K, 18050 kPa, x1 = 0.0004968 | 820.6
313 K, 18070 kPa, x1 = 0.0005357 | 820
313 K, 18180 kPa, x1 = 0.0006348 | 823.1
313 K, 18300 kPa, x1 = 0.0006348 | 824.3
313 K, 18400 kPa, x1 = 0.0006348 | 825.2
313 K, 18510 kPa, x1 = 0.0006348 | 826.4
313 K, 18600 kPa, x1 = 0.0006348 | 827.4
313 K, 18700 kPa, x1 = 0.0006348 | 828.4
313 K, 18790 kPa, x1 = 0.0006348 | 829.4
313 K, 18910 kPa, x1 = 0.0006348 | 830.6
313 K, 18990 kPa, x1 = 0.0006302 | 830.2
313 K, 19000 kPa, x1 = 0.0004968 | 830.5
313 K, 19040 kPa, x1 = 0.0003534 | 831.8
313 K, 19070 kPa, x1 = 0.0005357 | 830.9
313 K, 19070 kPa, x1 = 0.0006348 | 832.2
313 K, 19960 kPa, x1 = 0.0004968 | 839.8
313 K, 19990 kPa, x1 = 0.0006302 | 839.7
313 K, 20050 kPa, x1 = 0.0003534 | 841.4
313 K, 20060 kPa, x1 = 0.0005357 | 840.4
313 K, 20090 kPa, x1 = 0.0006348 | 841.8
313 K, 20150 kPa, x1 = 0.0007923 | 843.3
313 K, 20300 kPa, x1 = 0.0007923 | 844.6
313 K, 20540 kPa, x1 = 0.0007923 | 846.7
313 K, 20740 kPa, x1 = 0.0007923 | 848.5
313 K, 20940 kPa, x1 = 0.0007923 | 850.2
313 K, 21000 kPa, x1 = 0.0006302 | 848.7
313 K, 21010 kPa, x1 = 0.0006348 | 849.8
313 K, 21020 kPa, x1 = 0.0004968 | 849.3
313 K, 21040 kPa, x1 = 0.0003534 | 850.3
313 K, 21050 kPa, x1 = 0.0005357 | 849.1
313 K, 21120 kPa, x1 = 0.0007923 | 851.7
313 K, 21300 kPa, x1 = 0.0007923 | 853.3
313 K, 21520 kPa, x1 = 0.0007923 | 855
313 K, 21700 kPa, x1 = 0.0008682 | 855
313 K, 21710 kPa, x1 = 0.0007923 | 856.7
313 K, 21970 kPa, x1 = 0.0007923 | 858.7
313 K, 21980 kPa, x1 = 0.0003534 | 858
313 K, 22020 kPa, x1 = 0.0004968 | 857.5
313 K, 22020 kPa, x1 = 0.0006348 | 858.2
313 K, 22020 kPa, x1 = 0.0008682 | 857.3
313 K, 22030 kPa, x1 = 0.0005357 | 857.3
313 K, 22050 kPa, x1 = 0.0006302 | 857.5
313 K, 22230 kPa, x1 = 0.0007923 | 860.8
313 K, 22470 kPa, x1 = 0.0008682 | 861
313 K, 22650 kPa, x1 = 0.0007923 | 864
313 K, 22790 kPa, x1 = 0.0004968 | 863.5
313 K, 22910 kPa, x1 = 0.0007923 | 865.9
313 K, 22930 kPa, x1 = 0.0008981 | 864.8
313 K, 22990 kPa, x1 = 0.0003534 | 866
313 K, 23000 kPa, x1 = 0.0006302 | 864.9
313 K, 23030 kPa, x1 = 0.0005357 | 865.1
313 K, 23050 kPa, x1 = 0.0006348 | 866
313 K, 23070 kPa, x1 = 0.0008682 | 865.7
313 K, 23280 kPa, x1 = 0.0008981 | 867.3
313 K, 23520 kPa, x1 = 0.0007923 | 868.9
313 K, 23550 kPa, x1 = 0.0008682 | 869.1
313 K, 23570 kPa, x1 = 0.0008981 | 869.5
313 K, 23790 kPa, x1 = 0.0006348 | 871.5
313 K, 23810 kPa, x1 = 0.0008981 | 871.1
313 K, 23990 kPa, x1 = 0.0005357 | 872.2
313 K, 24000 kPa, x1 = 0.0006302 | 872.3
313 K, 24010 kPa, x1 = 0.0004968 | 872.7
313 K, 24010 kPa, x1 = 0.0008981 | 872.6
313 K, 24020 kPa, x1 = 0.0007923 | 871.6
313 K, 24040 kPa, x1 = 0.0008682 | 872.7
313 K, 24050 kPa, x1 = 0.0003534 | 873.7
313 K, 24460 kPa, x1 = 0.0008682 | 875.8
313 K, 24640 kPa, x1 = 0.0005357 | 876.7
313 K, 24740 kPa, x1 = 0.0006302 | 877.4
313 K, 24780 kPa, x1 = 0.0008981 | 877.9
313 K, 25030 kPa, x1 = 0.0004968 | 879.6
318 K, 10140 kPa, x1 = 0.0001436 | 535.9
318 K, 10290 kPa, x1 = 0.0001436 | 551.9
318 K, 10550 kPa, x1 = 0.0001436 | 577.8
318 K, 10890 kPa, x1 = 0.0001436 | 604.2
318 K, 11230 kPa, x1 = 0.0001436 | 626.2
318 K, 11520 kPa, x1 = 0.0001436 | 641.2
318 K, 11870 kPa, x1 = 0.0001436 | 657.3
318 K, 12190 kPa, x1 = 0.0001436 | 670.6
318 K, 12480 kPa, x1 = 0.0001436 | 680.9
318 K, 12820 kPa, x1 = 0.0001436 | 692
318 K, 13110 kPa, x1 = 0.0001436 | 700.3
318 K, 13390 kPa, x1 = 0.0001436 | 708.3
318 K, 13730 kPa, x1 = 0.0001436 | 716.8
318 K, 14030 kPa, x1 = 0.0001436 | 723.9
318 K, 14520 kPa, x1 = 0.0001436 | 734.8
318 K, 14990 kPa, x1 = 0.0001436 | 744
318 K, 16050 kPa, x1 = 0.0001436 | 762.8
318 K, 17010 kPa, x1 = 0.0001436 | 777.4
318 K, 17690 kPa, x1 = 0.0001436 | 786.8
318 K, 18080 kPa, x1 = 0.0001436 | 791.8
318 K, 18990 kPa, x1 = 0.0001436 | 802.8
318 K, 19750 kPa, x1 = 0.0001436 | 811.4
318 K, 21720 kPa, x1 = 0.001828 | 831.3
318 K, 21990 kPa, x1 = 0.001828 | 833.9
318 K, 22510 kPa, x1 = 0.001828 | 838.4
318 K, 23010 kPa, x1 = 0.001828 | 842.7
318 K, 23350 kPa, x1 = 0.001112 | 845.5
318 K, 23520 kPa, x1 = 0.001828 | 846.9
318 K, 23920 kPa, x1 = 0.001112 | 849.8
318 K, 24050 kPa, x1 = 0.001112 | 850.8
318 K, 24050 kPa, x1 = 0.001828 | 850.9
318 K, 24090 kPa, x1 = 0.001112 | 851.1
318 K, 24270 kPa, x1 = 0.001112 | 852.5
318 K, 24430 kPa, x1 = 0.001112 | 853.7
318 K, 24510 kPa, x1 = 0.001112 | 854.2
318 K, 24560 kPa, x1 = 0.001828 | 854.7
318 K, 24610 kPa, x1 = 0.001112 | 855
318 K, 24770 kPa, x1 = 0.001112 | 856.3
318 K, 24930 kPa, x1 = 0.001112 | 857.5
318 K, 25040 kPa, x1 = 0.001112 | 858.3

Source: the NIST ThermoML archive (doi:10.1016/j.fluid.2009.11.007)
